One experiment concerns B16B16 melanoma. Put plainly: Tumour experiment: subcutaneously growing B16B16 melanoma in C57BL/6 mice, tumor size index. The experiment is classed as in vivo. As for the experimental part:
Female C57BL/6J@RJ mice were purchased from Janvier (Le Genest-Saint-Isle, France). The animals were housed in 14-10 hours light/dark cycles in a temperature-controlled, air-conditioned room, and received food and water ad libitum. The mice were used for the tumour experiment at the age of 8-12 weeks.
The melanin-positive melanoma B16B16 cells (Hart et al., 1979) were cultured in RPMI 1640 (Invitrogen) supplemented with 10% FCS, 50 IU/ml penicillin G, 50 μg/ml streptomycin sulphate, 2 mM L-glutamine and 0.4 mM Na-pyruvate. For tumor inoculation cells were detached from the culture flask by a short EDTA treatment, washed three times in endotoxin-free sterile PBS (Sigma), and resuspended in PBS at 6×10^6 cells/ml.
On day 0, the mice were inoculated with 6×10^5 cells subcutaneously in the back just in front of the hind limb. Treatment was started when the tumor size index (TSI), i.e., the product of the largest perpendicular diameters in cm, reached 0.5 (day 13). Treatment with hTNF (30 μg/injection) or low dose mTNF (0.7 μg/injection) was given daily for 9 or 10 consecutive days via paralesional injection (subcutaneous injection near the site of the tumor, but outside the nodule). Alpha-GalCer (1-2 μg/injection) was injected intraperitoneally. […] TSI and body weight were measured every day prior to injection and every two or three days when treatment was finished.

The subject of the next experiment is cancer. Conditions: clinical studies; cited from earlier work.

Here are results for 1 compound from US7959907B2, “Method of treating cancer by combination therapy using TNF and alpha-galactosylceramide” (VIB VZW, priority 2007, dated 2011).

On to `CCCCCCCCCCCCCCCCCCCCCCCCCC(=O)N[C@@H](CO[C@H]1O[C@H](CO)[C@H](O)[C@H](O)[C@H]1O)[C@H](O)[C@H](O)CCCCCCCCCCCCCC` [alpha-GalCer, (2S 3S, 4R)-1-O-(alfa-D-galactopyranosyl)-N-hexacosanoyl-2-amino-1,3,4-octadecanetriol], for which the “effect on tumour growth” value with B16B16 melanoma (larger scale experiment, n=7, alpha-GalCer 1 μg/mouse pre-treatment, hTNF 30 μg/injection, low dose mTNF 0.7 μg/injection) is listed as “small inhibiting effect”. Moreover, the “effect on tumor growth” value in the experiment on B16B16 melanoma (pilot experiment, alpha-GalCer 2 μg/mouse i.p., hTNF 30 μg/injection paralesional daily, single agents alone) is recorded as “no effect on tumor growth”. In addition, in the experiment with cancer, the clinical anti-tumour effects result is listed as “no clinical anti-tumour effects were recorded”.
